Molecular target: hERG (Homo sapiens, UniProt Q12809)
Assay: Patch clamp assay (hERG tail currents, whole-cell)
Description: The 35 mm culture dishes upon which cells were seeded at a density allowing single cells to be recorded were placed on the dish holder of the microscope and continuously perfused (at approximately 1 mL/min) with the bath solution described in section 4.6. All solutions applied to cells including the pipette solution were maintained at room temperature (19° C. to 30° C.). After formation of a Gigaohm seal between the patch electrodes and individual hERG stably transfected HEK 293 cells (pipette resistance range: 2.0 MS to 7.0 MS; seal resistance range: >1GΩ) the cell membrane across the pipette tip was ruptured to assure electrical access to the cell interior (whole-cell patch-configuration). In case the quality of the seal was poor, the process of seal formation was repeated with a different cell and a new pipette. As soon as a stable seal could be established, hERG outward tail currents were measured upon depolarization of the cell membrane to +20 mV for 2 s (activation of channels) from a holding potential of −80 mV and upon subsequent repolarization to −40 mV for 3 s. This voltage protocol (as shown below) was run at least 10 times at intervals of 10 s. If current density was judged to be too low for measurement, another cell was recorded.
During wash-in of the test item the voltage protocol indicated above was run continuously again at 10 s intervals until the steady-state level of block was reached.
The IC50 was determined by fitting the dose response curve with a 2-parameter logistic function (amax=100%).

Chain of hERG (Q12809 whole entry): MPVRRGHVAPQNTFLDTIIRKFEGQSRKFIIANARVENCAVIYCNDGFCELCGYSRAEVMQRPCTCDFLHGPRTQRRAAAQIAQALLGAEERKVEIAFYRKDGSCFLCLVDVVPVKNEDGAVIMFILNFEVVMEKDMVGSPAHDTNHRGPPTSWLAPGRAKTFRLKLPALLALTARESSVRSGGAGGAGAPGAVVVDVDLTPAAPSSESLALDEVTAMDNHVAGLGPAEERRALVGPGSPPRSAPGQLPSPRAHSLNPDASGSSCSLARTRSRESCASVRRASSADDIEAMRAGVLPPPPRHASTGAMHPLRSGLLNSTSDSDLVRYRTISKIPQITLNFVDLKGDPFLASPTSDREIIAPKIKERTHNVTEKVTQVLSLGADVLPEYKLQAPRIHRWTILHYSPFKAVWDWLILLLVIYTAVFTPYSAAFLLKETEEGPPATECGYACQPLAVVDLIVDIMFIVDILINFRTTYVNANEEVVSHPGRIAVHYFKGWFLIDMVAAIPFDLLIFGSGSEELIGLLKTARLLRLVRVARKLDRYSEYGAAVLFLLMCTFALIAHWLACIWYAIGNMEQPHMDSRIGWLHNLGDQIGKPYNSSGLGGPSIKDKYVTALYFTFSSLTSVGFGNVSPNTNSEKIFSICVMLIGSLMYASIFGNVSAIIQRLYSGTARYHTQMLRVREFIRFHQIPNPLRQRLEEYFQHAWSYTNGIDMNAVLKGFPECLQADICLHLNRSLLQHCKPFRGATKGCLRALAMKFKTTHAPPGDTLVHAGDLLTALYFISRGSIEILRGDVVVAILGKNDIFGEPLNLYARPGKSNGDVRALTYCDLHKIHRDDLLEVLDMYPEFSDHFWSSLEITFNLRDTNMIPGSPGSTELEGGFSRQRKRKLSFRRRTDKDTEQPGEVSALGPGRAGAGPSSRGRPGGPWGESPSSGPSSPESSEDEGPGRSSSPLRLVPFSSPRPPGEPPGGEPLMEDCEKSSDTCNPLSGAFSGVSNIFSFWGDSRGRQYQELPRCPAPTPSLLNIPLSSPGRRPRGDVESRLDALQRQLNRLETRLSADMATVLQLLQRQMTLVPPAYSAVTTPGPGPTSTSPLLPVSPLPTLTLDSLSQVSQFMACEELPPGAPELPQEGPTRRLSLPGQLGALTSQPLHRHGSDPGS

| Compound | hERG % Remaining (10 μM compound) | hERG % Remaining (30 μM compound) |
| --- | --- | --- |
| CCN(C(=O)c1cc(F)ccc1Oc1cncnc1N1CC2(CCN(C[C@@H]3CC[C@@H](NS(=O)(=O)c4ccc(OC)cc4)CO3)CC2)C1)C(C)C [Example 62, N-Ethyl-5-fluoro-N-isopropyl-2-((4-(7-(((2S,5R)-5-((4-methoxyphenyl)sulfonamido)tetrahydro-2H-pyran-2-yl)methyl)-2,7-diazaspiro[3.5]nonan-2-yl)pyrimidin-5-yl)oxy)benzamide] | + (<33%) | + (<33%) |
| CC(C)N(CCC#N)C(=O)c1cc(F)ccc1Oc1cncnc1N1CC2(CCN(C[C@@H]3CC[C@@H](NS(=O)(=O)N(C)C)CO3)CC2)C1 [Example 183, N-(2-Cyanoethyl)-2-((4-(7-(((2S,5R)-5-((N,N-dimethylsulfamoyl)amino)tetrahydro-2H-pyran-2-yl)methyl)-2,7-diazaspiro[3.5]nonan-2-yl)pyrimidin-5-yl)oxy)-5-fluoro-N-isopropylbenzamide] |  | +++ (≥66%) |
| CCN(C(=O)c1cc(F)ccc1Oc1cncnc1N1CC2(CCN(C[C@@H]3CC[C@@H](NS(=O)(=O)c4ccccn4)CO3)CC2)C1)C(C)C [Example 58, N-ethyl-5-fluoro-N-isopropyl-2-((4-(7-(((2S,5R)-5-(pyridine-2-sulfonamido)tetrahydro-2H-pyran-2-yl)methyl)-2,7-diazaspiro[3.5]nonan-2-yl)pyrimidin-5-yl)oxy)benzamide] | +++ (≥66%) | ++ (233% and ≤66%) |
| C[C@@H]1COC[C@@H](C)N1C(=O)c1cc(F)ccc1Oc1cncnc1N1CC2(CCN(C[C@@H]3CC[C@@H](NS(=O)(=O)NCC4CC4)CO3)CC2)C1 [Example 158, (Cyclopropylmethyl)({[(3R,6S)-6-{[2-(5-{2-[(3R,5R)-3,5-dimethylmorpholine-4-carbonyl]-4-fluorophenoxy}pyrimidin-4-yl)-2,7-diazaspiro[3.5]nonan-7-yl]methyl}oxan-3-yl]sulfamoyl})amine] |  | +++ (≥66%) |
| C[C@@H]1COC[C@H](C)N1C(=O)c1cc(F)ccc1Oc1cncnc1N1CC2(CCN(C[C@@H]3CC[C@@H](NS(=O)(=O)c4ccccc4)CO3)CC2)C1 [Example 130, N-((3R,6S)-6-((2-(5-(2-((3S,5R)-3,5-Dimethylmorpholine-4-carbonyl)-4-fluorophenoxy)pyrimidin-4-yl)-2,7-diazaspiro[3.5]nonan-7-yl)methyl)tetrahydro-2H-pyran-3-yl)benzenesulfonamide] | +++ (≥66%) | ++ (233% and ≤66%) |
| CCS(=O)(=O)N[C@@H]1CC[C@@H](CN2CCC3(CC2)CN(c2ncncc2Oc2ccc(F)cc2C(=O)N(C(C)C)[C@@H]2CC[C@@H]2O)C3)OC1 [Example 258, 2-((4-(7-(((2S,5R)-5-(Ethylsulfonamido)tetrahydro-2H-pyran-2-yl)methyl)-2,7-diazaspiro[3.5]nonan-2-yl)pyrimidin-5-yl)oxy)-5-fluoro-N-((1R,2S)-2-hydroxycyclobutyl)-N-isopropylbenzamide] | +++ (≥66%) | ++ (233% and ≤66%) |
| CCN(C(=O)c1cc(F)ccc1Oc1cncnc1N1CC2(CCN(C[C@@H]3CC[C@@H](NS(=O)(=O)c4ccccc4Cl)CO3)CC2)C1)C(C)C [Example 59, 2-((4-(7-(((2S,5R)-5-((2-Chlorophenyl)sulfonamido)tetrahydro-2H-pyran-2-yl)methyl)-2,7-diazaspiro[3.5]nonan-2-yl)pyrimidin-5-yl)oxy)-N-ethyl-5-fluoro-N-isopropylbenzamide] | + (<33%) | + (<33%) |
| CC(C)N(CC(F)F)C(=O)c1cc(F)ccc1Oc1cncnc1N1CC2(CCN(C[C@@H]3CC[C@@H](NS(N)(=O)=O)CO3)CC2)C1 [Example 240, N-(2,2-Difluoroethyl)-5-fluoro-N-isopropyl-2-((4-(7-(((2S,5R)-5-(sulfamoylamino)tetrahydro-2H-pyran-2-yl)methyl)-2,7-diazaspiro[3.5]nonan-2-yl)pyrimidin-5-yl)oxy)benzamide] |  | +++ (≥66%) |
| CC(C)N(C)C(=O)c1cc(F)ccc1Oc1cncnc1N1CC2(CCN(C[C@@H]3CC[C@@H](NS(=O)(=O)N4CCC4)CO3)CC2)C1 [Example 138, 2-((4-(7-(((2S,5R)-5-(Azetidine-1-sulfonamido)tetrahydro-2H-pyran-2-yl)methyl)-2,7-diazaspiro[3.5]nonan-2-yl)pyrimidin-5-yl)oxy)-5-fluoro-N-isopropyl-N-methylbenzamide] |  | +++ (≥66%) |
| CNS(=O)(=O)N[C@@H]1CC[C@@H](CN2CCC3(CC2)CN(c2ncncc2Oc2ccc(F)cc2C(=O)N(CC(F)F)C(C)C)C3)OC1 [Example 102, N-(2,2-Difluoroethyl)-5-fluoro-N-isopropyl-2-((4-(7-(((2S,5R)-5-((N-methylsulfamoyl)amino)tetrahydro-2H-pyran-2-yl)methyl)-2,7-diazaspiro[3.5]nonan-2-yl)pyrimidin-5-yl)oxy)benzamide] |  | +++ (≥66%) |
| CCN(C(=O)c1cc(F)ccc1Oc1cncnc1N1CC2(CCN(C[C@@H]3CC[C@@H](NC(=O)NCC(F)(F)F)CO3)CC2)C1)C(C)C [Example 37, N-Ethyl-5-fluoro-N-isopropyl-2-((4-(7-(((2S,5R)-5-(3-(2,2,2-trifluoroethyl)ureido)tetrahydro-2H-pyran-2-yl)methyl)-2,7-diazaspiro[3.5]nonan-2-yl)pyrimidin-5-yl)oxy)benzamide] | + (<33%) | + (<33%) |
| CC(C)N(C(=O)c1cc(F)ccc1Oc1nncnc1N1CC2(CCN(C[C@@H]3CC[C@@H](NS(=O)(=O)N4CCC4)CO3)CC2)C1)C(C)C [Example 199, 2-((5-(7-(((2S,5R)-5-(Azetidine-1-sulfonamido)tetrahydro-2H-pyran-2-yl)methyl)-2,7-diazaspiro[3.5]nonan-2-yl)-1,2,4-triazin-6-yl)oxy)-5-fluoro-N,N-diisopropylbenzamide] |  | +++ (≥66%) |
| CCNS(=O)(=O)N[C@@H]1CC[C@@H](CN2CCC3(CC2)CN(c2ncncc2Oc2ccc(F)cc2C(=O)N(CC(F)F)C(C)C)C3)OC1 [Example 147, N-(2,2-Difluoroethyl)-2-((4-(7-(((2S,5R)-5-((N-ethylsulfamoyl)amino)tetrahydro-2H-pyran-2-yl)methyl)-2,7-diazaspiro[3.5]nonan-2-yl)pyrimidin-5-yl)oxy)-5-fluoro-N-isopropylbenzamide] | +++ (≥66%) | +++ (≥66%) |
| CC(C)N(C(=O)c1cc(F)ccc1Oc1cncnc1N1CC2(CCN(C[C@@H]3CC[C@@H](NS(=O)(=O)N(C)C(C)C)CO3)CC2)C1)C(C)C [Example 89, 5-Fluoro-N,N-diisopropyl-2-((4-(7-(((2S,5R)-5-((N-isopropyl-N-methylsulfamoyl)amino)tetrahydro-2H-pyran-2-yl)methyl)-2,7-diazaspiro[3.5]nonan-2-yl)pyrimidin-5-yl)oxy)benzamide] |  | ++ (233% and ≤66%) |
| CCN(C(=O)c1cc(F)ccc1Oc1cncnc1N1CC2(CCN(C[C@@H]3CC[C@@H](NC(=O)OC(C)(C)C)CO3)CC2)C1)C(C)C [Example 11, tert-Butyl ((3R,6S)-6-((2-(5-(2-(ethyl(isopropyl)carbamoyl)-4-fluorophenoxy)pyrimidin-4-yl)-2,7-diazaspiro[3.5]nonan-7-yl)methyl)tetrahydro-2H-pyran-3-yl)carbamate] | + (<33%) | + (<33%) |

From patent US20240400564A1 (Syndax Pharmaceuticals, Inc, priority 2021, published 2024)
